Test results from US20100249082A1, “MODULATORS OF HYPOXIA INDUCIBLE FACTOR-1 AND RELATED USES” (Bionaut Pharmaceuticals INC., priority 2007, published 2010).

Key:
Na^+, K^+-ATPase [1] = biological target: T1, Na^+, K^+-ATPase (Homo sapiens, UniProt P05023); experiment: cell-based; conditions: for Rank order: HEK-293, ranked on potency (IC50 value)
T1 construct: The HEK-293 cell line endogenously expressing Na^+, K^+-ATPase; endogenous in cells; host or cells: HEK-293
Protocol: Cells were plated at a density of 50,000 cells/well in 96-well microplates and incubated at 37° C., 5% CO2 until 80-90% confluency was attained

[2] = Sample solubility noted in the rubidium uptake assay; assay type: physicochemical; conditions: DMSO 1.0%
Na^+, K^+-ATPase [3] = biological target: Na^+, K^+-ATPase (Cricetulus griseus, UniProt A0A8C2N4Z0); experiment: cell-based
Protocol: (§1) Compounds were screened using Ion Channel Research (ICR) technology and a non-radioactive Rubidium Uptake Assay
(§2) For all the test compounds and standard blockers, 100× solutions were used to prepare 1× test doses for Na^+, K^+-ATPase screen in CHO cell line. The final DMSO concentration in each well was 1%.
(§3) • 1. […] Rb^+ Uptake: Cells were washed with 200 μl of Rb^+ Uptake Buffer once and R^+ loaded by application of 198 μl R^+ Uptake Buffer. Compounds were added at 2 μl/well of a 100× stock solution in 100% DMSO in the uptake buffer followed by incubation for 30 minutes at room temperature (c. 22° C.). The total volume in each well was 200 μl (198 μl of R^+ Uptake Buffer and 2 μl of the 100× compound). The 100× compound solution gets diluted in R^+ Uptake Buffer to 1× and the DMSO to 1%. • 3. Wash: Residual R^+ and compound were removed by four successive washes with 200 μl of SPA-Wash Buffer. • 4. Cell Lysis: Intracellular samples were obtained by whole cell lysis with the application of 200 μl Lysis Solution. • 5. Analysis: The level of R^+ in the intracellular samples was measured by ICR8000 (Aurora Biomed Inc., Vancouver, Canada). using flame atomic absorption spectroscopy.

Na^+, K^+-ATPase [4] = experiment: cell-based; conditions: for Inhibition (%) / Normalized Uptake (%): CHO-K1; for Sample Solubility: CHO-K1 screen test wells, 1% DMSO
Protocol: as §1, §2, §3

HIF-1α expression = experiment: Immunoblotting for hypoxia-mediated HIF-1α induction in human tumor cells (Caki-1, Panc-1); assay type: cell-based; conditions: Caki-1 or Panc-1 cells under hypoxia
HIF-1α accumulation = experiment: Western blot of HIF-1α induced by PHD inhibitor L-mimosone under normoxia in Hep3B cells; assay type: cell-based; conditions: 200 μM L-mimosone for 18 hours, Western blotting
Protocol: Abundance of HIF1α and β-actin was determined by Western blotting.

[5] = cited from earlier work

Row | Structure (SMILES) | IC50 (Na^+, K^+-ATPase [1]) [µM] | Rank order (Na^+, K^+-ATPase [1]) | Sample Solubility [2] | IC50 (Na^+, K^+-ATPase [3]) [µM] | Inhibition (%) (Na^+, K^+-ATPase [4]; dose 0.50 uM) | Normalized Uptake (%) (Na^+, K^+-ATPase [4]; dose 0.50 uM) | Inhibition (%) (Na^+, K^+-ATPase [4]; dose 1.0 uM) | Normalized Uptake (%) (Na^+, K^+-ATPase [4]; dose 1.0 uM) | Inhibition (%) (Na^+, K^+-ATPase [4]; dose 5.0 uM) | Normalized Uptake (%) (Na^+, K^+-ATPase [4]; dose 5.0 uM) | Inhibition (%) (Na^+, K^+-ATPase [4]; dose 10 uM) | Normalized Uptake (%) (Na^+, K^+-ATPase [4]; dose 10 uM) | Inhibition (%) (Na^+, K^+-ATPase [4]; dose 50 uM) | Normalized Uptake (%) (Na^+, K^+-ATPase [4]; dose 50 uM) | Inhibition (%) (Na^+, K^+-ATPase [4]; dose 100 uM) | Normalized Uptake (%) (Na^+, K^+-ATPase [4]; dose 100 uM) | Inhibition (%) (Na^+, K^+-ATPase [4]; dose 200 uM) | Normalized Uptake (%) (Na^+, K^+-ATPase [4]; dose 200 uM) | Inhibition (%) (Na^+, K^+-ATPase [4]; dose 500 uM) | Normalized Uptake (%) (Na^+, K^+-ATPase [4]; dose 500 uM) | further results
1 | C[C@@H]1O[C@@H](O[C@@H]2C=C3CC[C@@H]4[C@H](CC[C@]5(C)[C@@H](c6ccc(=O)oc6)CC[C@]45O)[C@@]3(C)CC2)[C@H](O)[C@H](O)[C@H]1O [BNC4, proscillaridin, reference compound] | 0.24 | 1 | Good | 46.4 | 1.3 | 99.4 | 0.0 | 100.3 | 9.0 | 93.8 | 20.6 | 80.5 | 51.8 | 54.6 | 69.8 | 44.0 | 86.7 | 38.2 | 100.0 | 28.7 | Sample Solubility (Na^+, K^+-ATPase [4]): Good; Potency in inhibiting HIF-1α expression relative to BNC1 (HIF-1α expression): about 10 times; Effect on HIF-1α accumulation induced by L-mimosone (HIF-1α accumulation): eliminated HIF-1α accumulation; plasma half-life in human ([5]; human, according to the literature): about 40 hours; max. plasma concentration ([5]; in vivo): about 0.1 μg/mL
2 | C[C@]12CCC(=NOCCN3CCC(Cc4ccccc4)CC3)C=C1CCC1C2CC[C@]2(C)[C@@H](c3ccc(=O)oc3)CC[C@]12O (stereo partly shown) [BP249, 3-[2-(4-Benzylpiperidinoethoxy)imino]-scillarinone] | 5.53 | 4 | Good | 41.9 | 0.6 | 103.0 | 0.0 | 103.5 | 2.6 | 100.7 | 17.9 | 87.9 | 54.2 | 57.3 | 73.4 | 41.0 | 87.8 | 29.0 | 100.0 | 18.7 | Sample Solubility (Na^+, K^+-ATPase [4]): Good
